In this test the test system is SH-SY5Y M-currents (KCNQ2, KCNQ3 and KCNQ5). Kind of test: SH-SY5Y native cell line FLIPR assay (voltage-sensitive dye DiBAC). As to conditions: FLIPR assay, SH-SY5Y native cell line; Table 2; read-out: SH-SY5Y EC50. Format: cell-based, mouse neuroblastoma, rat glioma hybrid cell line. The procedure, abridged:
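Response is peak DiBAC fluorescence change, normalised to the maximum from a positive control agent, sampled every 30 s over 25 min. Before compound addition, SH-SY5Y cells differentiated with PGE1 plus isomethylbutylxanthine were dye-loaded for 1 h in EBSS with […] DiBAC.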
On to `O=C(Cc1ccc(F)cc1)Nc1nc2ccccn2c1-c1ccc(OC(F)(F)F)cc1` [Compound 205, 2-(4-fluorophenyl)-N-(3-(4-(trifluoromethoxy)phenyl)imidazo[1,2-a]pyridin-2-yl)acetamide], for which the EC50 is less than 500 nM. As for `CC(C)(C)OCC(=O)Nc1nc2ccc(F)cn2c1-c1ccc(C(F)(F)F)cc1` [Compound 206, 2-tert-butoxy-N-(6-fluoro-3-(4-(trifluoromethyl)phenyl)imidazo[1,2-a]pyridin-2-yl)acetamide], the figure is 3000 to 10000 nM. As for `O=C(Cc1ccccc1)Nc1nc2ccc(F)cn2c1-c1ccc(OC(F)(F)F)cc1` [Compound 207, N-(6-fluoro-3-(4-(trifluoromethoxy)phenyl)imidazo[1,2-a]pyridin-2-yl)-2-phenylacetamide], the figure is less than 500 nM; as for `CC(C)(C)OCC(=O)Nc1nc2ccc(F)cn2c1-c1ccc(OC(F)(F)F)cc1` [Compound 208, 2-tert-butoxy-N-(6-fluoro-3-(4-(trifluoromethoxy)phenyl)imidazo[1,2-a]pyridin-2-yl)acetamide], 3000 to 10000 nM; as for `CC(CC(=O)Nc1nc2ccc(F)cn2c1-c1ccc(F)c(F)c1)C(F)(F)F` (stereo not drawn) [Compound 209, N-(3-(3,4-difluorophenyl)-6-fluoroimidazo[1,2-a]pyridin-2-yl)-4,4,4-trifluoro-3-methylbutanamide], less than 500 nM. To `O=C(Cc1ccc(F)cc1)Nc1nc2ccc(F)cn2c1-c1ccc(F)c(F)c1` [Compound 210, N-(3-(3,4-difluorophenyl)-6-fluoroimidazo[1,2-a]pyridin-2-yl)-2-(4-fluorophenyl)acetamide] belongs less than 500 nM; to `O=C(Cc1ccccc1)Nc1nc2ccc(F)cn2c1-c1ccc(F)c(F)c1` [Compound 211, N-(3-(3,4-difluorophenyl)-6-fluoroimidazo[1,2-a]pyridin-2-yl)-2-phenylacetamide], less than 500 nM; to `CC(C)(C)CC(=O)Nc1nc2ccc(F)cn2c1-c1ccc(F)c(F)c1` [Compound 212, N-(3-(3,4-difluorophenyl)-6-fluoroimidazo[1,2-a]pyridin-2-yl)-3,3-dimethylbutanamide], less than 500 nM. In the case of `O=C(NCCc1ccc(F)cc1)Nc1nc2ccc(F)cn2c1-c1ccc(C(F)(F)F)cc1` [Compound 213, 1-(6-fluoro-3-(4-(trifluoromethyl)phenyl)imidazo[1,2-a]pyridin-2-yl)-3-(4-fluorophenethyl)urea], the EC50 was 3000 to 10000 nM.

Take `O=C(NCc1ccc(F)cc1)Nc1nc2ccc(F)cn2c1-c1ccc(C(F)(F)F)cc1` [Compound 214, 1-(6-fluoro-3-(4-(trifluoromethyl)phenyl)imidazo[1,2-a]pyridin-2-yl)-3-(4-fluorobenzyl)urea]: the EC50 was in the range of 500 to 3000 nM. To `CC(C)(C)NC(=O)Nc1nc2ccc(F)cn2c1-c1ccc(C(F)(F)F)cc1` [Compound 215, 1-tert-butyl-3-(6-fluoro-3-(4-(trifluoromethyl)phenyl)imidazo[1,2-a]pyridin-2-yl)urea] belongs 500 to 3000 nM; to `CC(C)(C)CC(=O)Nc1nc2cc(Cl)c(Cl)cn2c1-c1ccc(OC(F)(F)F)cc1` [Compound 216, N-(6,7-dichloro-3-(4-(trifluoromethoxy)phenyl)imidazo[1,2-a]pyridin-2-yl)-3,3-dimethylbutanamide], less than 500 nM. To `O=C(Cc1ccc(F)cc1)Nc1nc2cc(Cl)c(Cl)cn2c1-c1ccc(OC(F)(F)F)cc1` [Compound 217, N-(6,7-dichloro-3-(4-(trifluoromethoxy)phenyl)imidazo[1,2-a]pyridin-2-yl)-2-(4-fluorophenyl)acetamide] belongs 500 to 3000 nM; to `CC(C)(C#N)CC(=O)Nc1nc2ccc(F)cn2c1-c1ccc(OC(F)(F)F)cc1` [Compound 218, 3-cyano-N-(6-fluoro-3-(4-(trifluoromethoxy)phenyl)imidazo[1,2-a]pyridin-2-yl)-3-methylbutanamide], 500 to 3000 nM; to `CC(CC(=O)Nc1nc2cc(Cl)c(Cl)cn2c1-c1ccc(OC(F)(F)F)cc1)C(F)(F)F` (stereo not drawn) [Compound 219], 500 to 3000 nM. As for `O=C(CCC1CCCC1)Nc1nc2ccc(F)cn2c1-c1ccc(C(F)(F)F)cc1` [Compound 220, 3-cyclopentyl-N-(6-fluoro-3-(4-(trifluoromethyl)phenyl)imidazo[1,2-a]pyridin-2-yl)propanamide], the figure is less than 500 nM; as for `CC(C)(C)CC(=O)Nc1nc2ccccn2c1-c1ccc(F)cc1` [Compound 221, N-(3(4-fluorophenyl)imidazo[1,2-a]pyridin-2-yl)-3,3-dimethylbutanamide], 500 to 3000 nM. Consider `O=C(CC1CCCC1)Nc1nc2ccccn2c1-c1ccc(F)cc1` [Compound 222, 2-cyclopentyl-N-(3-(4-fluorophenyl)imidazo[1,2-a]pyridin-2-yl)acetamide], for which the EC50 lay within 500 to 3000 nM. `CC(C)(C)CC(=O)Nc1nc2ccccn2c1-c1ccc(C(F)(F)F)cc1` [Compound 223, 3,3-dimethyl-N-(3-(4-(trifluoromethyl)phenyl)imidazo[1,2-a]pyridin-2-yl)butanamide]: the EC50 was less than 500 nM. To `O=C(CC1CCCC1)Nc1nc2ccccn2c1-c1ccc(C(F)(F)F)cc1` [Compound 224, 2-cyclopentyl-N-(3-(4-(trifluoromethyl)phenyl)imidazo[1,2-a]pyridin-2-yl)acetamide] belongs less than 500 nM; to `O=C(CC1CCCC1)Nc1nc2ccccn2c1-c1ccc(OC(F)(F)F)cc1` [Compound 226, 2-cyclopentyl-N-(3-(4-(trifluoromethoxy)phenyl)imidazo[1,2-a]pyridin-2-yl)acetamide], less than 500 nM.

`CC(C)(C)CC(=O)Nc1nc2ccc(F)cn2c1-c1cc(F)cc(F)c1` [Compound 227, N-(3-(3,5-difluorophenyl)-6-fluoroimidazo[1,2-a]pyridin-2-yl)-3,3-dimethylbutanamide]: the EC50 is less than 500 nM. As for `O=C(Cc1ccccc1)Nc1nc2ccc(F)cn2c1-c1cc(F)cc(F)c1` [Compound 228, N-(3-(3,5-difluorophenyl)-6-fluoroimidazo[1,2-a]pyridin-2-yl)-2-phenylacetamide], the figure is less than 500 nM; as for `O=C(Cc1ccc(F)cc1)Nc1nc2ccc(F)cn2c1-c1cc(F)cc(F)c1` [Compound 229, N-(3-(3,5-difluorophenyl)-6-fluoroimidazo[1,2-a]pyridin-2-yl)-2-(4-fluorophenyl)acetamide], less than 500 nM; as for `CC(CC(=O)Nc1nc2ccc(F)cn2c1-c1cc(F)cc(F)c1)C(F)(F)F` (stereo not drawn) [Compound 230, N-(3-(3,5-difluorophenyl)-6-fluoroimidazo[1,2-a]pyridin-2-yl)-4,4,4-trifluoro-3-methylbutanamide], 500 to 3000 nM. As for `O=C(COc1ccccc1)Nc1nc2ccc(F)cn2c1-c1ccc(OC(F)(F)F)cc1` [Compound 231, N-(6-fluoro-3-(4-(trifluoromethoxy)phenyl)imidazo[1,2-a]pyridin-2-yl)-2-phenoxyacetamide], the figure is 3000 to 10000 nM; as for `CC(Oc1ccccc1)C(=O)Nc1nc2ccc(F)cn2c1-c1ccc(OC(F)(F)F)cc1` (stereo not drawn) [Compound 232, N-(6-fluoro-3-(4-(trifluoromethoxy)phenyl)imidazo[1,2-a]pyridin-2-yl)-2-phenoxypropanamide], 3000 to 10000 nM; as for `CC(C)(C)CC(=O)Nc1nc2cc(Cl)c(Cl)cn2c1-c1ccc(C(F)(F)F)cc1` [Compound 233, N-(6,7-dichloro-3-(4-(trifluoromethyl)phenyl)imidazo[1,2-a]pyridin-2-yl)-3,3-dimethylbutanamide], less than 500 nM. To `CC(C(=O)Nc1nc2ccc(F)cn2c1-c1ccc(C(F)(F)F)cc1)C(C)(C)C` (stereo not drawn) [Compound 234, N-(6-fluoro-3-(4-(trifluoromethyl)phenyl)imidazo[1,2-a]pyridin-2-yl)-2,3,3-trimethylbutanamide] belongs less than 500 nM; to `CC(C(=O)Nc1nc2ccc(F)cn2c1-c1ccc(OC(F)(F)F)cc1)C(C)(C)C` (stereo not drawn) [Compound 235, N-(6-fluoro-3-(4-(trifluoromethoxy)phenyl)imidazo[1,2-a]pyridin-2-yl)-2,3,3-trimethylbutanamide], less than 500 nM; to `O=C(Cc1ccc(F)cc1)Nc1nc2cc(Cl)c(Cl)cn2c1-c1ccc(C(F)(F)F)cc1` [Compound 236, N-(6,7-dichloro-3-(4-(trifluoromethyl)phenyl)imidazo[1,2-a]pyridin-2-yl)-2-(4-fluorophenyl)acetamide], less than 500 nM.

For the compound `O=C(COCc1ccccc1)Nc1nc2ccc(F)cn2c1-c1ccc(OC(F)(F)F)cc1` [Compound 237, 2-(benzyloxy)-N-(6-fluoro-3-(4-(trifluoromethoxy)phenyl)imidazo[1,2-a]pyridin-2-yl)acetamide], the EC50 was in the range of 3000 to 10000 nM. To `O=C(Cc1ccc(Cl)cc1)Nc1nc2ccc(F)cn2c1-c1ccc(OC(F)(F)F)cc1` [Compound 238, 2-(4-chlorophenyl)-N-(6-fluoro-3-(4-(trifluoromethoxy)phenyl)imidazo[1,2-a]pyridin-2-yl)acetamide] belongs less than 500 nM. `O=C(Cc1cccc(F)c1)Nc1nc2ccc(F)cn2c1-c1ccc(OC(F)(F)F)cc1` [Compound 240, N-(6-fluoro-3-(4-(trifluoromethoxy)phenyl)imidazo[1,2-a]pyridin-2-yl)-2-(3-fluorophenyl)acetamide]: the EC50 is less than 500 nM. As for `O=C(Cc1ccc(F)c(F)c1)Nc1nc2ccc(F)cn2c1-c1ccc(OC(F)(F)F)cc1` [Compound 241, 2-(3,4-difluorophenyl)-N-(6-fluoro-3-(4-(trifluoromethoxy)phenyl)imidazo[1,2-a]pyridin-2-yl)acetamide], the figure is less than 500 nM. Regarding `O=C(Cc1cc(F)cc(F)c1)Nc1nc2ccc(F)cn2c1-c1ccc(OC(F)(F)F)cc1` [Compound 242, 2-(3,5-difluorophenyl)-N-(6-fluoro-3-(4-(trifluoromethoxy)phenyl)imidazo[1,2-a]pyridin-2-yl)acetamide], the EC50 is less than 500 nM.

The record behind these values is patent US9018208B2, “Heterocycles as potassium channel modulators” (Icagen Inc., priority 2007, dated 2015).
